Values after ≈ are worked out from the molar mass of the structure shown. Read-outs that look alike come from different tables or passages of the source. Where a SMILES comes first, the peptide text is derived from it. Where no end group is shown, it is not given here. [ ]: non-standard residue; d: D form. The star is where a group is joined. Orn(α-tetramethylguanidino) = CN(C)C(=N[C@@H](CCCN)C(=O)*)N(C)C; Hyp = O=C(O)[C@@H]1C[C@@H](O)CN1; hArg = N=C(N)NCCCC[C@H](N)C(=O)O; NMeL = CN[C@@H](CC(C)C)C(=O)O; Orn = NCCC[C@H](N)C(=O)O; For = O=C*
Key:
E. coli D31 = assay type: cell-based, Escherichia coli
In short: (§1)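 Bacteria grown overnight in nutrient broth at 37° C were diluted to 5×10^6 CFU/mL in 1% TSB and exposed to peptides serially halved from 125 μg/mL to 60 ng/mL final. After 20 h at 37° C, A595 gave the MIC, measured in triplicate.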

B. subtilis 347 = assay type: cell-based, Bactillus subtillis
Method: (§2) The minimal inhibition concentrations (MIC) of the apidaecin-derived peptides and peptide-derivatives were determined by a growth inhibition assay using a serial peptide dilution in sterilized round-bottom 96-well plates (polystyrene, U-bottom, Greiner Bio-One GmbH) with a final volume of 100 μL per well. The bacteria, e.g., E. coli BL21 A1, were grown in nutrient broth (NB, Carl Roth GmbH+Co. KG, Karlsruhe, Germany) at 37° C. over night. To each well of the 96-well plate, 50 μL of the overnight culture adjusted to 5×10^6 CFU/mL in 1% TSB were added. Lyophilized peptides and peptidomimetics were dissolved in 1% TSB (tryptic soy broth) or water to give a final concentration of 250 μg/mL. Fifty μL of the peptide or peptidomimetics solution were added to the first well of a row on the plate and mixed. Fifty μL of the first well containing the peptide solution were transferred to the second well, mixed and again 50 μL transferred to the next well and so on. Thereby, a two-fold dilution series was obtained starting at 250 μg/mL in the first well down to 120 ng/mL in the 12th well of a row giving a final peptide or peptidomimetics concentration from 125 μg/mL (well 1) to 60 ng/mL (well 12). Plates were incubated at 37° C. for 20 hrs. The absorbance was measured at 595 nm using a TECAN micro plate spectrophotometer (Tecan, Germany). All peptides and peptidomimetics were measured in triplicates. Sterilized water was used as a negative control.
(§3) The bacteria strains were tested: • Eschericha coli 1103, 10233, BL 21 AI, DC 2, • Klebsiella pneumoniae 681, • Micrococcus luteus ATCC 10240, • Mycobacterium vaccae • Bactillus subtillis 347.

[1] = system: S. enterica subsp. Enterica serovar. typhi G10215 ATCC 700408; assay type: cell-based, Salmonella enterica
In short: as §1

K. Pneumonia 123132 = assay: Growth inhibition assay (MIC); assay type: cell-based, Klebsiella pneumoniae; details: multidrug resistant strain; 1% TSB, 37° C., 20 hrs
In short: as §1

[2] = system: K. Pneumonia K6, ATCC 700603; assay: Growth inhibition assay (MIC); assay type: cell-based, Klebsiella pneumoniae; details: multidrug resistant strain; 1% TSB, 37° C., 20 hrs
In short: as §1

S. typhi S5 = assay type: cell-based, Salmonella typhi
In short: as §1

E. coli BL 21 AI = assay: Growth inhibition assay (MIC); assay type: cell-based, Escherichia coli; details: 1% TSB, 37° C., 20 hrs
In short: (§4)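 Bacteria grown overnight in NB at 37° C. were adjusted to 5×10^6 CFU/mL in 1% TSB and mixed 1:1 with a two-fold peptide series (final 125 μg/mL–60 ng/mL). After 20 hrs at 37° C., A595 was read; triplicates.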

K. pneumonia 681 = assay type: cell-based, Klebsiella pneumoniae
Method: as §2, §3

E. coli 45849 = assay: Growth inhibition assay (MIC); assay type: cell-based, Escherichia coli; details: multidrug resistant strain; 1% TSB, 37° C., 20 hrs
In short: as §1

E. coli 10233 = assay type: cell-based, Escherichia coli
Method: as §2, §3

M. luteus ATCC 10240 = assay type: cell-based, Micrococcus luteus
In short: as §4

E. coli 1103 = assay type: cell-based, Escherichia coli
Method: as §2, §3

[3] = system: R. radiobatter ATCC 15955; assay: Growth inhibition assay (MIC); assay type: cell-based, Rhizobium radiobacter; details: multidrug resistant strain; 1% TSB, 37° C., 20 hrs
In short: as §1

in vitro = in vitro ADME, mouse; details: 25% aqueous mouse serum, 37° C.; read-out: Half-life time
Method: Serum stability studies were carried out in duplicate as described by Hoffmann et al.. Briefly, 28 μL of an aqueous peptide or peptidomimetics solution (0.5 mg/mL) was added to 0.2 mL freshly pooled 25% mouse serum (Sigma-Aldrich GmbH, Taufkirchen, Germany) in water. The mixtures were incubated at 37° C. under gentle stirring. The proteins were precipitated with 40 μL of 15% aqueous TCA after incubation times of 0, 0.5, 1, 2, 4 and 6 h at 0° C. for 20 min before centrifuged (13500×G) at 4° C. for 5 min. The supernatants of all samples (240 μL) were neutralized with 1 mol/L aqueous NaOH and immediately stored at −20° C. The supernatants were analyzed by RP-HPLC using a linear acetonitrile gradient as described above with 0.1% TFA as ion pair reagent. Collected fractions of the main peaks were further analyzed by tandem mass spectrometry (MALDI-TOF/TOF-MS, 4700 Proteomics Analyzer, Applied Biosystems GmbH, Weiterstadt, Germany) in positive ion reflector mode using α-cyanohydroxycinnamic acid (50% CH3CN in 0.1% aqueous TFA) as matrix to identify the degradation products of the peptides and peptidomimetics, i.e., metabolites, at the different time points. Serum control samples consisted of 200 μL of pooled 25% mouse serum in water, which were also precipitated with 40 μL 15% aqueous TCA, as described before. Peptide reference samples consisted of 28 μL of the peptide stock solution diluted in 0.2 mL water and 40 μL of 15% aqueous trichloroacetic acid (TCA).

[4] = multidrug resistant strain, 1% TSB, 37° C., 20 hrs

Molecule | MIC K. Pneumonia 123132 (K. Pneumonia 123132) [µg/mL] | MIC K. Pneumonia K6, ATCC 700603 [2] [µg/mL] | MIC E. coli BL 21 AI (E. coli BL 21 AI) [µg/mL] | MIC E. coli 45849 (E. coli 45849) [µg/mL] | MIC E. coli D31 (E. coli D31; D31, 20 h) [µg/mL] | MIC B. subtilis 347 (B. subtilis 347; 347, 20 h) [µg/mL] | MIC S. enterica subsp. Enterica serovar. typhi G10215 ATCC 700408 ([1]; ATCC 700408, 20 h) [µg/mL] | MIC K. pneumonia 681 (K. pneumonia 681; 20 h) [µg/mL] | MIC E. coli 1103 (E. coli 1103; 1103, 20 h) [µg/mL] | MIC E. coli 10233 (E. coli 10233; 10233, 20 h) [µg/mL] | MIC M. luteus ATCC 10240 (M. luteus ATCC 10240; ATCC 10240, 20 h) [µg/mL] | MIC S. typhi S5 (S. typhi S5; S5, 20 h) [µg/mL] | further results
85 (GNNRPVYIPQPRPPHPRL) [compound 85] | 16 | 64 | 0.24 | 2 | – | – | – | – | – | – | – | – | MIC E. coli D31 (E. coli D31; [4]): 16 µg/mL; MIC B. subtilis 347 (B. subtilis 347; 1% TSB, 37° C., 20 hrs): >125 µg/mL; MIC S. enterica subsp. Enterica serovar. typhi G10215 ATCC 700408 [1, 4]: 0.5 µg/mL; MIC S. typhi S5 (S. typhi S5; [4]): 0.5 µg/mL; MIC K. pneumonia 681 (K. pneumonia 681; 1% TSB, 37° C., 20 hrs): 31.25 µg/mL; MIC E. coli 10233 (E. coli 10233; 1% TSB, 37° C., 20 hrs): 1.95 µg/mL; MIC M. luteus ATCC 10240 (M. luteus ATCC 10240; 1% TSB, 37° C., 20 hrs): 15.63 µg/mL
135 (PEG3000-[Orn]NNRPVYIPRPRPPHPRL-NH2) [compound 135] | – | – | >125 | – | – | – | – | – | – | – | – | – | MIC B. subtilis 347 (B. subtilis 347; 1% TSB, 37° C., 20 hrs): >125 µg/mL; MIC K. pneumonia 681 (K. pneumonia 681; 1% TSB, 37° C., 20 hrs): >125 µg/mL; MIC E. coli 1103 (E. coli 1103; 1% TSB, 37° C., 20 hrs): >125 µg/mL; MIC E. coli 10233 (E. coli 10233; 1% TSB, 37° C., 20 hrs): >125 µg/mL; MIC M. luteus ATCC 10240 (M. luteus ATCC 10240; 1% TSB, 37° C., 20 hrs): 8 µg/mL
CC[C@H](C)[C@H](NC(=O)[C@H](Cc1ccc(O)cc1)NC(=O)[C@@H](NC(=O)[C@@H]1CCCN1C(=O)[C@H](CCCNC(=N)N)NC(=O)[C@H](CC(N)=O)NC(=O)[C@H](CC(N)=O)NC(=O)CN)C(C)C)C(=O)N1CCC[C@H]1C(=O)N[C@@H](CCC(N)=O)C(=O)N1CCC[C@H]1C(=O)N[C@@H](CCCNC(=N)N)C(=O)N1CCC[C@H]1C(=O)N1CCC[C@H]1C(=O)N[C@@H](Cc1c[nH]cn1)C(=O)N1CCC[C@H]1C(=O)N[C@@H](CCCNC(=N)N)C(=O)N(C)[C@@H](CC(C)C)C(N)=O [compound 33] (H-GNNRPVYIPQPRPPHPR[NMeL]-NH2) | – | >128 | 15.63 (≈ 7.37 µM) | – | 32 (≈ 15.1 µM) | >125 | 8 (≈ 3.77 µM) | >125 | 62.5 (≈ 29.5 µM) | 15.63 (≈ 7.37 µM) | 31.25 (≈ 14.7 µM) | – | –
CC[C@H](C)[C@H](NC(=O)[C@H](Cc1ccc(O)cc1)NC(=O)[C@@H](NC(=O)[C@@H]1CCCN1C(=O)[C@H](CCCNC(=N)N)NC(=O)[C@H](CC(N)=O)NC(=O)[C@H](CC(N)=O)NC(=O)[C@H](CCCN)NC(C)=O)C(C)C)C(=O)N1CCC[C@H]1C(=O)N[C@@H](CCCNC(=N)N)C(=O)N1C[C@H](O)C[C@H]1C(=O)N[C@@H](CCCNC(=N)N)C(=O)N1CCC[C@H]1C(=O)N1CCC[C@H]1C(=O)N[C@@H](Cc1c[nH]cn1)C(=O)N1CCC[C@H]1C(=O)N[C@@H](CCCNC(=N)N)C(=O)N[C@@H](CC(C)C)C(N)=O [compound 40] (Ac-[Orn]NNRPVYIPR[Hyp]RPPHPRL-NH2) | 4 (≈ 1.78 µM) | 16 (≈ 7.11 µM) | – | 1 (≈ 0.444 µM) | 8 (≈ 3.55 µM) | 125 (≈ 55.5 µM) | 4 (≈ 1.78 µM) | 3.91 (≈ 1.74 µM) | 3.91 (≈ 1.74 µM) | 1.95 (≈ 0.866 µM) | – | <0.5 | MIC R. radiobatter ATCC 15955 [3]: 0.33 µg/mL (≈ 0.147 µM)
CC[C@H](C)[C@H](NC(=O)[C@H](Cc1ccc(O)cc1)NC(=O)[C@@H](NC(=O)[C@@H]1CCCN1C(=O)[C@H](CCCNC(=N)N)NC(=O)[C@H](CC(N)=O)NC(=O)[C@H](CC(N)=O)NC(=O)CNC=O)C(C)C)C(=O)N1CCC[C@H]1C(=O)N[C@@H](CCC(N)=O)C(=O)N1CCC[C@H]1C(=O)N[C@@H](CCCNC(=N)N)C(=O)N1CCC[C@H]1C(=O)N1CCC[C@H]1C(=O)N[C@@H](Cc1c[nH]cn1)C(=O)N1CCC[C@H]1C(=O)N[C@@H](CCCNC(=N)N)C(=O)N[C@@H](CC(C)C)C(N)=O [compound 84] (For-GNNRPVYIPQPRPPHPRL-NH2) | 32 (≈ 15 µM) | 32 (≈ 15 µM) | 1.95 (≈ 0.913 µM) | 0.5 (≈ 0.234 µM) | 1 (≈ 0.468 µM) | >125 | 0.25 (≈ 0.117 µM) | 62.5 (≈ 29.3 µM) | – | 1.95 (≈ 0.913 µM) | 3.91 (≈ 1.83 µM) | 0.25 (≈ 0.117 µM) | –
CC[C@H](C)[C@H](NC(=O)[C@H](Cc1ccc(O)cc1)NC(=O)[C@@H](NC(=O)[C@@H]1CCCN1C(=O)[C@H](CCCNC(=N)N)NC(=O)[C@H](CC(N)=O)NC(=O)[C@H](CC(N)=O)NC(=O)[C@H](CCCN)N=C(N(C)C)N(C)C)C(C)C)C(=O)N1CCC[C@H]1C(=O)N[C@@H](CCCNC(=N)N)C(=O)N1CCC[C@H]1C(=O)N[C@@H](CCCNC(=N)N)C(=O)N1CCC[C@H]1C(=O)N1CCC[C@H]1C(=O)N[C@@H](Cc1c[nH]cn1)C(=O)N1CCC[C@H]1C(=O)N[C@@H](CCCCNC(=N)N)C(=O)N[C@@H](CC(C)C)C(N)=O [compound 155] ({Orn(α-tetramethylguanidino)}-NNRPVYIPRPRPPHP[hArg]L-NH2) | 2 (≈ 0.868 µM) | 4 (≈ 1.74 µM) | 4 (≈ 1.74 µM) | 4 (≈ 1.74 µM) | 4 (≈ 1.74 µM) | 32 (≈ 13.9 µM) | 0.5 (≈ 0.217 µM) | 4 (≈ 1.74 µM) | 4 (≈ 1.74 µM) | – | 1 (≈ 0.434 µM) | 4 (≈ 1.74 µM) | half-life (in vitro): > 6 h
GNNRPVYIPQPRPPHPRL [compound 2] | – | 64 | 0.98 | – | 32 | >125 | 2 | 62.5 | 7.81 | 1.95 | 31.25 | – | –
H-LRPHPPRPQPIYVPRNNG-NH2 [compound 141] | – | – | >125 | – | – | >125 | – | >125 | >125 | >125 | >125 | – | –

Reference: patent publication US20150315241A1, “Antibiotic Peptides” (priority 2007, published 2015)
